Laboratory results as given in PubChem BioAssay (NCI).
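A five-concentration, 48-hour dose response in 96-well plates underlies each endpoint, interpolated linearly between surrounding concentrations. TGI: total growth inhibition.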

How the values were obtained:
Assay in all cases: DTP human tumour cell line panel, 48 h
SF-295 CNS = system: SF-295 CNS
OVCAR-3 ovarian = system: OVCAR-3 ovarian
SK-MEL-2 melanoma = system: SK-MEL-2 melanoma
LOX IMVI melanoma = system: LOX IMVI melanoma
PC-3 prostate = system: PC-3 prostate
CCRF-CEM leukemia = system: CCRF-CEM leukemia
T-47D breast = system: T-47D breast
HCT-116 colon = system: HCT-116 colon
TK-10 renal = system: TK-10 renal
SN12C renal = system: SN12C renal
M14 melanoma = system: M14 melanoma
HOP-92 NSCLC = system: HOP-92 NSCLC
SK-MEL-28 melanoma = system: SK-MEL-28 melanoma
OVCAR-5 ovarian = system: OVCAR-5 ovarian
HS 578T breast = system: HS 578T breast
SF-268 CNS = system: SF-268 CNS
NCI/ADR-RES ovarian = system: NCI/ADR-RES ovarian
MOLT-4 leukemia = system: MOLT-4 leukemia
UACC-62 melanoma = system: UACC-62 melanoma
EKVX NSCLC = system: EKVX NSCLC
UACC-257 melanoma = system: UACC-257 melanoma
SK-OV-3 ovarian = system: SK-OV-3 ovarian
COLO 205 colon = system: COLO 205 colon
HOP-62 NSCLC = system: HOP-62 NSCLC
ACHN renal = system: ACHN renal
KM12 colon = system: KM12 colon
NCI-H460 lung = system: NCI-H460 lung
NCI-H226 lung = system: NCI-H226 lung
HCC-2998 colon = system: HCC-2998 colon
SR leukemia = system: SR leukemia
OVCAR-8 ovarian = system: OVCAR-8 ovarian
A498 renal = system: A498 renal
UO-31 renal = system: UO-31 renal
DU-145 prostate = system: DU-145 prostate
U251 CNS = system: U251 CNS
RPMI-8226 leukemia = system: RPMI-8226 leukemia
K-562 leukemia = system: K-562 leukemia
OVCAR-4 ovarian = system: OVCAR-4 ovarian
SNB-75 CNS = system: SNB-75 CNS
RXF 393 renal = system: RXF 393 renal
MCF7 breast = system: MCF7 breast
MDA-MB-435 = system: MDA-MB-435
IGROV1 ovarian = system: IGROV1 ovarian
SNB-19 CNS = system: SNB-19 CNS
HL-60(TB) leukemia = system: HL-60(TB) leukemia
NCI-H23 lung = system: NCI-H23 lung
HT29 colon = system: HT29 colon
SF-539 CNS = system: SF-539 CNS
A549 NSCLC = system: A549 NSCLC
CAKI-1 renal = system: CAKI-1 renal
BT-549 breast = system: BT-549 breast
MDA-MB-231 breast = system: MDA-MB-231 breast
MDA-N = system: MDA-N
HCT-15 colon = system: HCT-15 colon
786-0 renal = system: 786-0 renal
SK-MEL-5 melanoma = system: SK-MEL-5 melanoma

Which TGI (SF-295 CNS) does the source give for `Cc1c(C(=O)OCc2ccccc2)[n+](=O)c2ccccc2n1[O-]` here?
The TGI was over 100 µM.

And the TGI (OVCAR-3 ovarian)?
The TGI was over 100 µM.

And the TGI (SK-MEL-2 melanoma)?
The TGI was over 100 µM.

What about the TGI (LOX IMVI melanoma) of the same compound?
Its TGI is 44.8 µM.

What about the TGI (PC-3 prostate) of the same compound?
The TGI was over 100 µM.

And the TGI (CCRF-CEM leukemia)?
Its TGI is 0.199 µM.

And the TGI (T-47D breast)?
Its TGI is 57.2 µM.

And the TGI (HCT-116 colon)?
The TGI was 65.6 µM.

And the TGI (TK-10 renal)?
The TGI was 84.6 µM.

And the TGI (SN12C renal)?
Its TGI is over 100 µM.

What about the TGI (M14 melanoma) of the same compound?
Its TGI is over 100 µM.

What about the TGI (HOP-92 NSCLC) of the same compound?
The TGI was 13.4 µM.

What about the TGI (SK-MEL-28 melanoma) of the same compound?
Its TGI is over 100 µM.

And the TGI (OVCAR-5 ovarian)?
The TGI was over 100 µM.

And the TGI (HS 578T breast)?
Its TGI is 72.9 µM.

And the TGI (SF-268 CNS)?
The TGI was over 100 µM.

What about the TGI (NCI/ADR-RES ovarian) of the same compound?
The TGI was 93.8 µM.

And the TGI (MOLT-4 leukemia)?
Its TGI is 43 µM.

And the TGI (UACC-62 melanoma)?
The TGI was over 100 µM.

What about the TGI (EKVX NSCLC) of the same compound?
The TGI was 91.5 µM.

And the TGI (UACC-257 melanoma)?
The TGI was 56.1 µM.

And the TGI (SK-OV-3 ovarian)?
Its TGI is over 100 µM.

And the TGI (COLO 205 colon)?
The TGI was 37.6 µM.

What about the TGI (HOP-62 NSCLC) of the same compound?
Its TGI is 61.2 µM.

And the TGI (ACHN renal)?
The TGI was over 100 µM.

What about the TGI (KM12 colon) of the same compound?
Its TGI is over 100 µM.

And the TGI (NCI-H460 lung)?
The TGI was over 100 µM.

What about the TGI (NCI-H226 lung) of the same compound?
The TGI was 57.1 µM.

And the TGI (HCC-2998 colon)?
The TGI was over 100 µM.

And the TGI (SR leukemia)?
Its TGI is 47.3 µM.

What about the TGI (OVCAR-8 ovarian) of the same compound?
Its TGI is over 100 µM.

And the TGI (A498 renal)?
Its TGI is 94.3 µM.

What about the TGI (UO-31 renal) of the same compound?
The TGI was 86.3 µM.

And the TGI (DU-145 prostate)?
The TGI was 47.8 µM.

And the TGI (U251 CNS)?
The TGI was over 100 µM.

What about the TGI (RPMI-8226 leukemia) of the same compound?
Its TGI is 30.5 µM.

What about the TGI (K-562 leukemia) of the same compound?
The TGI was over 100 µM.

What about the TGI (OVCAR-4 ovarian) of the same compound?
The TGI was 85 µM.

And the TGI (SNB-75 CNS)?
The TGI was 56.5 µM.

And the TGI (RXF 393 renal)?
Its TGI is 69.1 µM.

And the TGI (MCF7 breast)?
Its TGI is over 100 µM.

And the TGI (MDA-MB-435)?
Its TGI is 75.2 µM.

What about the TGI (IGROV1 ovarian) of the same compound?
The TGI was 34.1 µM.

And the TGI (SNB-19 CNS)?
The TGI was over 100 µM.

And the TGI (HL-60(TB) leukemia)?
Its TGI is 77.4 µM.

And the TGI (NCI-H23 lung)?
Its TGI is 95.7 µM.

And the TGI (HT29 colon)?
Its TGI is over 100 µM.

What about the TGI (SF-539 CNS) of the same compound?
The TGI was over 100 µM.

What about the TGI (A549 NSCLC) of the same compound?
The TGI was 70.7 µM.

And the TGI (CAKI-1 renal)?
The TGI was 80.5 µM.

What about the TGI (BT-549 breast) of the same compound?
The TGI was over 100 µM.

What about the TGI (MDA-MB-231 breast) of the same compound?
Its TGI is 64.8 µM.

And the TGI (MDA-N)?
The TGI was over 100 µM.

What about the TGI (HCT-15 colon) of the same compound?
Its TGI is over 100 µM.

What about the TGI (786-0 renal) of the same compound?
Its TGI is over 100 µM.

And the TGI (SK-MEL-5 melanoma)?
Its TGI is 53.6 µM.
